Measurements taken from ChEMBL document CHEMBL2029230, “Identification, design and biological evaluation of heterocyclic quinolones targeting Plasmodium falciparum type II NADH:quinone oxidoreductase (PfNDH2)” (J Med Chem, 2012).

Assays:
[1] = Inhibition of Plasmodium falciparum recombinant NDH2 expressed in Escherichia coli F571 using decyclubiquinone as substrate at 1 min by spectrophotometry
Plasmodium falciparum [2] = assay: Antimalarial activity against […]-resistant Plasmodium falciparum TM90C2B containing cytochrome-b Y268S mutant; format: functional, organism-based
Plasmodium falciparum [3] = assay: Antimalarial activity against blood stage forms of Plasmodium falciparum 3D7 infected in human erythrocytes; format: functional, organism-based
Plasmodium falciparum [4] = assay: Antimalarial activity against chloroquine-resistant Plasmodium falciparum W2; format: functional, organism-based
Plasmodium berghei [5] = assay: Antimalarial activity against Plasmodium berghei NS infected in po dosed CD1 mouse assessed as decrease in parasitemia measured on day 4; format: functional; settings: 96 h
Plasmodium berghei [6] = assay: Antimalarial activity against Plasmodium berghei NS infected in CD1 mouse assessed as decrease in parasitemia at 20 mg/kg, po administered using DET as vehicle measured on day 4; format: functional; design: scale not given: the % may be the effect or the level left
Plasmodium berghei [7] = assay: Antimalarial activity against Plasmodium berghei NS infected in CD1 mouse assessed as decrease in parasitemia at 20 mg/kg, po administered using SSV as vehicle measured on day 4; format: functional; design: scale not given: the % may be the effect or the level left

| Structure (SMILES) | IC50 (Plasmodium falciparum [3]) | also measured |
| --- | --- | --- |
| Cc1c(-c2ccc(-c3ccccc3F)nc2)[nH]c2ccccc2c1=O | 151 nM | IC50 [1]: 131 nM; IC50 (Plasmodium falciparum [2]): 324 nM; IC50 (Plasmodium falciparum [4]): 120 nM |
| O=c1c(CO)c(-c2ccc(-c3ccc(OC(F)(F)F)cc3)cc2)[nH]c2ccccc12 | 162 nM | IC50 [1]: 69 nM; IC50 (Plasmodium falciparum [2]): 361 nM |
| Cc1c(-c2ccc(-c3ccc(C(F)(F)F)nc3)nc2)[nH]c2ccccc2c1=O | 370 nM | IC50 (Plasmodium falciparum [4]): 329 nM |
| Cc1c(-c2ccc(-c3ccc(OC(F)(F)F)cc3)nc2)[nH]c2ccccc2c1=O.O=P(O)(O)O | – | ED50 (Plasmodium berghei [5]): 1.87 mg/kg; ED90 (Plasmodium berghei [5]): 4.72 mg/kg |
| CCOC(=O)c1c(-c2ccc(-c3ccc(OC(F)(F)F)cc3)cc2)[nH]c2ccccc2c1=O | 347 nM | – |
| Cc1c(-c2ccc(-c3cccc(OCCN4CCCCC4)c3)nc2)[nH]c2ccccc2c1=O | > 1000 nM | – |
| Cc1c(-c2ccc(-c3ccccc3C(F)(F)F)nc2)[nH]c2ccccc2c1=O | 109 nM | IC50 [1]: 352 nM; IC50 (Plasmodium falciparum [2]): 381 nM; IC50 (Plasmodium falciparum [4]): 88 nM |
| Cc1c(-c2ccc(OC3CCOCC3)cc2)[nH]c2ccccc2c1=O | > 1000 nM | – |
| CCOC(=O)c1c(-c2ccc(-c3ccc(Cl)cc3)cc2)[nH]c2ccccc2c1=O | 220 nM | IC50 (Plasmodium falciparum [2]): 1150 nM |
| Cc1c(-c2ccc(OCCN3CCOCC3)cc2)[nH]c2cc(Cl)ccc2c1=O | > 1000 nM | – |
| Cc1c(-c2ccc(-c3ccc(OCCN4CCOCC4)cc3)nc2)[nH]c2ccccc2c1=O | > 1000 nM | – |
| Cc1c(-c2ccc(-c3ccc(OC(F)(F)F)cc3)nc2)[nH]c2cc(F)cc(F)c2c1=O | 286 nM | IC50 [1]: 2.6 nM |
| CCN(CC)CCCC(C)Nc1ccnc2cc(Cl)ccc12 (stereo not given) [CHLOROQUINE] | – | ED50 (Plasmodium berghei [5]): 3.3 mg/kg; ED90 (Plasmodium berghei [5]): 4.6 mg/kg |
| Cc1c(-c2ccc(-c3ccc(C(F)(F)F)cc3)nc2)[nH]c2ccccc2c1=O | 102 nM | IC50 [1]: 13.9 nM; IC50 (Plasmodium falciparum [2]): 314 nM |
| Cc1c(-c2ccc(OC3CCC(F)(F)CC3)cc2)[nH]c2ccccc2c1=O | 319 nM | – |
| Cc1c(-c2ccc(-c3ccc(OC(F)(F)F)cc3)nc2)[nH]c2ccc(OC(F)(F)F)cc2c1=O | > 1000 nM | – |
| Cc1c(-c2ccc(-c3ccc(OC(F)(F)F)cc3)nc2)[nH]c2ccc(C(F)(F)F)cc2c1=O | > 1000 nM | – |

| Structure (SMILES) | IC50 (Plasmodium falciparum [3]) | also measured |
| --- | --- | --- |
| Cc1c(-c2ccc(OC3CCOCC3)cc2)[nH]c2ncccc2c1=O | > 1000 nM | – |
| CCOC(=O)c1c(-c2ccc(-c3ccc(OC(F)(F)F)cc3)nc2)[nH]c2ccccc2c1=O | 987 nM | – |
| Cc1c(-c2ccc(CN3CCOCC3)cc2)[nH]c2cc(Cl)ccc2c1=O | > 1000 nM | – |
| Cc1c(-c2ccc(-c3ccc(OC(F)(F)F)cc3)nc2)[nH]c2cc(F)c(Cl)cc2c1=O | 390 nM | – |
| O=C1C(O)=C([C@H]2CC[C@H](c3ccc(Cl)cc3)CC2)C(=O)c2ccccc21 [ATOVAQUONE] | – | ED50 (Plasmodium berghei [5]): 0.07 mg/kg; ED90 (Plasmodium berghei [5]): 0.11 mg/kg; IC50 (Plasmodium falciparum [2]): 12000 nM; Activity (Plasmodium berghei [6]): 100%; Activity (Plasmodium berghei [7]): 100% |
| Cc1c(-c2ccc(-c3ccc(OC(F)(F)F)cc3)nc2)[nH]c2c(O)cccc2c1=O | > 1000 nM | – |
| Cc1c(-c2ccc(OCCN3CCCCC3)cc2)[nH]c2ccccc2c1=O | > 1000 nM | – |
| Cc1c(-c2ccc(-c3ccc(OC(F)(F)F)cc3)nc2)[nH]c2cc(Cl)c(F)cc2c1=O | 390 nM | – |
| COc1c(-c2ccc(-c3ccc(OC(F)(F)F)cc3)nc2)[nH]c2ccccc2c1=O | 93 nM | – |
| O=c1c(CO)c(-c2ccc(-c3ccc(OC(F)(F)F)cc3)nc2)[nH]c2ccccc12 | 103 nM | IC50 [1]: 407 nM |
| Cc1c(-c2ccc(-c3ccc(CN4CCOCC4)cc3)cc2)[nH]c2ccccc2c1=O | 496 nM | – |
| Cc1c(-c2ccc(-c3ccc(OCCN4CCCCC4)cc3)nc2)[nH]c2ccccc2c1=O | 600 nM | – |
| Cc1c(-c2ccc(CN3CCOCC3)cc2)[nH]c2ccccc2c1=O | 32 nM | IC50 (Plasmodium falciparum [4]): 3070 nM |
| Cc1c(-c2ccc(OCCN3CCOCC3)cc2)[nH]c2ccc(Cl)cc2c1=O | > 1000 nM | – |
| Cc1c(-c2ccc(-c3ccc(OC(F)(F)F)cc3)nc2)[nH]c2ccc(Cl)cc2c1=O | 298 nM | IC50 (Plasmodium falciparum [2]): 410 nM |
| COc1cccc2[nH]c(-c3ccc(-c4ccc(OC(F)(F)F)cc4)nc3)c(C)c(=O)c12 | > 1000 nM | – |
